Results: ChEMBL document CHEMBL1649104, “Benzofuran Derivatives as Potent, Orally Active S1P1 Receptor Agonists: A Preclinical Lead Molecule for MS” (ACS Med Chem Lett, 2011)
One block for each molecule: values may come before it. Activity calls are given as the source filed them. The calls are words filed in the database; no cut-off is given here.

How the values were obtained:
[1] = target: T1, Sphingosine 1-phosphate receptor 3 (Homo sapiens, UniProt Q99500); experiment: Agonist activity at human S1P3R expressed in CHO cells by Ca(2+) mobilization assay; assay type: functional, cell-based
[2] = target: T2, Sphingosine 1-phosphate receptor 1 (Homo sapiens, UniProt P21453); experiment: Induction of human GFP-tagged chimeric S1P1R internalization in human U2Os cells by fluorescence microscopy; assay type: cell-based
[3] = target: T2, Sphingosine 1-phosphate receptor 1; experiment: Induction of human GFP-tagged chimeric S1P1R internalization in human U2Os cells by fluorescence microscopy relative to 1-(4-(6-benzylbenzofuran-2-yl)-3-fluorobenzyl)azetidine-3-carboxylic acid; assay type: cell-based
[4] = target: T1, Sphingosine 1-phosphate receptor 3; experiment: Displacement of [33P]S1P from human S1P3R expressed in CHO cell membranes
[5] = target: T2, Sphingosine 1-phosphate receptor 1; experiment: Agonist activity at human S1P1R expressed in CHO cells assessed as stimulation of [35S]GTPgammaS binding; assay type: functional, cell-based
Rattus norvegicus [6] = experiment: Toxicity in telemetered Sprague-Dawley rat assessed as effect on heart rate at 20 mg/kg, po; assay type: organism-based; set-up: dose 20 mg/kg, route oral; conditions: in vivo
Rattus norvegicus [7] = experiment: Toxicity in telemetered Sprague-Dawley rat assessed as effect on heart rate at 40 mg/kg, po; assay type: organism-based; set-up: dose 40 mg/kg, route oral; conditions: in vivo
Homo sapiens = species: Homo sapiens; experiment: Selectivity for human S1P1R over human S1P3R
[8] = Metabolic stability in human liver microsomes assessed as half life; assay type: ADME, Microsome
Rattus norvegicus [9] = experiment: Lymphopenic activity in Lewis rat assessed as reduction in blood lymphocyte counts at 1 mg/kg, po measured 24 hrs post dose; assay type: functional
Rattus norvegicus [10] = experiment: Lymphopenic activity in Lewis rat assessed as reduction in blood lymphocyte counts at 3 mg/kg, po measured 24 hrs post dose; assay type: functional
Rattus norvegicus [11] = experiment: Lymphopenic activity in po dosed Lewis rat assessed as reduction in blood lymphocyte counts measured 24 hrs post dose; assay type: functional, organism-based
Mus musculus = experiment: Reversing disease course in experimental autoimmune encephalitis SJL mouse model of multiple sclerosis at 10 mg/kg, po; assay type: functional, organism-based; set-up: dose 10 mg/kg
[12] = Clearance in Sprague-Dawley rat at 1 mg/kg, iv or 3 mg/kg, po; assay type: ADME, organism-based; conditions: in vivo
[13] = Volume of distribution at steady state in Sprague-Dawley rat at 1 mg/kg, iv or 3 mg/kg, po; assay type: ADME, organism-based; conditions: in vivo, read-out: Vdss
[14] = Terminal half life in Sprague-Dawley rat at 1 mg/kg, iv or 3 mg/kg, po; assay type: ADME, organism-based; conditions: in vivo, read-out: beta t1/2 (converted)
[15] = Mean residence time in Sprague-Dawley rat at 1 mg/kg, iv or 3 mg/kg, po; assay type: ADME, organism-based; conditions: in vivo
[16] = Oral bioavailability in Sprague-Dawley rat 3 mg/kg; assay type: ADME, organism-based; conditions: in vivo
[17] = Clearance in cynomolgus monkey at 1 mg/kg, iv or 5 mg/kg, po; assay type: ADME, organism-based, Macaca fascicularis; conditions: in vivo
[18] = Volume of distribution at steady state in cynomolgus monkey at 1 mg/kg, iv or 5 mg/kg, po; assay type: ADME, organism-based, Macaca fascicularis; conditions: in vivo, read-out: Vdss
[19] = Terminal half life in cynomolgus monkey at 1 mg/kg, iv or 5 mg/kg, po; assay type: ADME, organism-based, Macaca fascicularis; conditions: in vivo, read-out: beta t1/2 (converted)
[20] = Mean residence time in cynomolgus monkey at 1 mg/kg, iv or 5 mg/kg, po; assay type: ADME, organism-based, Macaca fascicularis; conditions: in vivo
[21] = Oral bioavailability in cynomolgus monkey 5 mg/kg; assay type: ADME, organism-based, Macaca fascicularis; conditions: in vivo
[22] = Clearance in Beagle dog at 2 mg/kg, iv or 3 mg/kg, po; assay type: ADME, organism-based, Canis lupus familiaris; conditions: in vivo
[23] = Volume of distribution at steady state in Beagle dog at 2 mg/kg, iv or 3 mg/kg, po; assay type: ADME, organism-based, Canis lupus familiaris; conditions: in vivo, read-out: Vdss
[24] = Terminal half life in Beagle dog at 2 mg/kg, iv or 3 mg/kg, po; assay type: ADME, organism-based, Canis lupus familiaris; conditions: in vivo, read-out: beta t1/2 (converted)
[25] = Mean residence time in Beagle dog at 2 mg/kg, iv or 3 mg/kg, po; assay type: ADME, organism-based, Canis lupus familiaris; conditions: in vivo
[26] = Oral bioavailability in Beagle dog 3 mg/kg; assay type: ADME, organism-based, Canis lupus familiaris; conditions: in vivo
[27] = Inhibition of Cytochrome P450; assay type: ADME
[28] = Induction of Cytochrome P450; assay type: ADME
[29] = Mutagenic activity in Salmonella Typhimurium by Ames assay; assay type: toxicity; conditions: salmonella enterica subsp. enterica serovar typhimurium
[30] = target: Voltage-gated inwardly rectifying potassium channel KCNH2 (Homo sapiens, UniProt Q12809); experiment: Inhibition of human ERG by patch-clamp method
[31] = Toxicity in rat assessed as No observed adverse effect level by 4 day repeated dose toxicity study; assay type: organism-based; conditions: in vivo
Rattus norvegicus [32] = experiment: Toxicity in telemetered Sprague-Dawley rat assessed as increase in mean arterial pressure at 20 mg/kg, po measured 4 to 6 hrs post dose; assay type: organism-based, Artery; set-up: dose 20 mg/kg, route oral; conditions: in vivo
Rattus norvegicus [33] = experiment: Toxicity in telemetered Sprague-Dawley rat assessed as increase in mean arterial pressure at 40 mg/kg, po measured 4 to 6 hrs post dose; assay type: organism-based, Artery; set-up: dose 40 mg/kg, route oral; conditions: in vivo

T1 sequence (Q99500 whole entry): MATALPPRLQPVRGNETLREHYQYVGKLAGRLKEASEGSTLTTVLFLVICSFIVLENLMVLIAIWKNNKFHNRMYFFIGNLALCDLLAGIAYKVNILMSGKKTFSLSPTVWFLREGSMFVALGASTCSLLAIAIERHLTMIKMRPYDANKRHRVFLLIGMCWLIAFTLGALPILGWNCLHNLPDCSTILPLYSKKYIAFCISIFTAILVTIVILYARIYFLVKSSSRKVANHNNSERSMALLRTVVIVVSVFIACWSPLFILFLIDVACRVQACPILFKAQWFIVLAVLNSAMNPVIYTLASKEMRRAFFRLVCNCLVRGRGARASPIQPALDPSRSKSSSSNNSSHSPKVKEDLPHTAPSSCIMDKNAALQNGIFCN
T2 sequence (P21453 whole entry): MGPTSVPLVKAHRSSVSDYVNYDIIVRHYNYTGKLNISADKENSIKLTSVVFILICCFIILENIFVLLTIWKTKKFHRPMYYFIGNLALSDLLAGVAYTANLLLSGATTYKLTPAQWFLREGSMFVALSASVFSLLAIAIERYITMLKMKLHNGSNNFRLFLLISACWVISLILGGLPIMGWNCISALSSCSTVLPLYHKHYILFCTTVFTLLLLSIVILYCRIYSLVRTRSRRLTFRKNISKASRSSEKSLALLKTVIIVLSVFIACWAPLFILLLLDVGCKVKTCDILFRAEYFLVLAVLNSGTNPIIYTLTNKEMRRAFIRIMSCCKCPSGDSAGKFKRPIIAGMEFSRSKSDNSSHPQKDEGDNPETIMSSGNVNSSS
Sequence of Voltage-gated inwardly rectifying potassium channel KCNH2 (Q12809 whole entry): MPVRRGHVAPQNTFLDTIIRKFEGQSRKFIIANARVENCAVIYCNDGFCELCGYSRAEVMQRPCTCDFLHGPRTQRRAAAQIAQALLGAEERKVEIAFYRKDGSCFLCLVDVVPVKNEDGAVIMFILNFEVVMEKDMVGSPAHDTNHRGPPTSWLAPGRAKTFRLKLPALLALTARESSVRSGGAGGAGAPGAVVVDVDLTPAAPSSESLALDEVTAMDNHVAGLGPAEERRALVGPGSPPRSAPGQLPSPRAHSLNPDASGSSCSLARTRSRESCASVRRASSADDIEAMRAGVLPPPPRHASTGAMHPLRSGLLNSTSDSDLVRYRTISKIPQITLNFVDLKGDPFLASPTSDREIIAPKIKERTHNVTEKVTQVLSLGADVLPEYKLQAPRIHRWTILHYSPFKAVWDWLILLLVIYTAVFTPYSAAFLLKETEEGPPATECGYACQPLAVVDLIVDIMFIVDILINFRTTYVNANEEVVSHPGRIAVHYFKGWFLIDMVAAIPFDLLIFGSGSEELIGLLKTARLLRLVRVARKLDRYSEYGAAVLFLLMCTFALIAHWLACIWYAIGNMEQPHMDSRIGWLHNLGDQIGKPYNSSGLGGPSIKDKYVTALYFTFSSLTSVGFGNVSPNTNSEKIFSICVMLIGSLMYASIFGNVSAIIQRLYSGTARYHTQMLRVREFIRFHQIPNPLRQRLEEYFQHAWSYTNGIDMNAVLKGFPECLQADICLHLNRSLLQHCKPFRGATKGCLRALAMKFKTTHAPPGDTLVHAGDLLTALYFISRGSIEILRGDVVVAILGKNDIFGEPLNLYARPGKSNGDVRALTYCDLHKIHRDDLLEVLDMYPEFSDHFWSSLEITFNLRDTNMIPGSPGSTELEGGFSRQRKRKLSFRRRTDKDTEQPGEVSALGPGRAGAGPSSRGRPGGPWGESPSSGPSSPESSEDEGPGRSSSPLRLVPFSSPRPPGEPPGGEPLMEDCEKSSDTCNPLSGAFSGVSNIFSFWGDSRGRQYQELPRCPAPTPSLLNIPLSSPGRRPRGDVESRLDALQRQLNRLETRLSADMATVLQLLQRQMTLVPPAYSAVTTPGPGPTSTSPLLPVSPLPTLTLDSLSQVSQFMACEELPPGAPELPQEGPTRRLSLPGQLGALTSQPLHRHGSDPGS

SMILES: O=C(O)C1CN(Cc2ccc(-c3cc4cc(Oc5ccccc5)ccc4o3)cc2)C1
- EC50 [1]: > 25000 nM

SMILES: O=C(O)C1CN(Cc2ccc(-c3cc4cc(-c5cccnc5)ccc4o3)cc2)C1
- EC50 [5]: > 1000 nM
- EC50 [1]: > 25000 nM
- EC50 [2]: 5030 nM

SMILES: O=C(O)C1CN(Cc2ccc(-c3cc4cc(Cc5ccccc5)ccc4o3)cc2)C1
- EC50 [5]: 440 nM
- EC50 [1]: > 4300 nM
- EC50 [2]: 2070 nM

SMILES: O=C(O)C1CN(Cc2ccc(-c3cc4cc(C5CCCCC5)ccc4o3)c(F)c2)C1
- EC50 [1]: > 25000 nM
- EC50 [2]: 48 nM
- Efficacy [3]: 100%

SMILES: O=C(O)C1CN(Cc2ccc(-c3cc4cc(OCC5CCCC5)ccc4o3)c(F)c2)C1
- EC50 [1]: > 25000 nM
- EC50 [2]: 454 nM
- Efficacy [3]: 71%

SMILES: CC(C)Cc1ccc2oc(-c3ccc(CN4CC(C(=O)O)C4)cc3)cc2c1
- EC50 [1]: 1900 nM
- EC50 [2]: 150 nM

SMILES: CCCCOc1ccc2cc(-c3ccc(CN4CC(C(=O)O)C4)cc3)oc2c1
- EC50 [1]: 25000 nM
- EC50 [2]: 2290 nM
- Efficacy [3]: 89%

SMILES: O=C(O)C1CN(Cc2ccc(-c3cc4cc(CCc5ccccc5)ccc4o3)cc2)C1
- EC50 [1]: > 25000 nM
- EC50 [2]: 354 nM

SMILES: CCCCc1ccc2oc(-c3ccc(CN4CC(C(=O)O)C4)cc3)cc2c1
- EC50 [5]: 350 nM
- EC50 [1]: > 25000 nM
- EC50 [2]: 2480 nM

Further lines, with some results ahead:

- EC50 [1]: 10300 nM
- EC50 [2]: 158 nM
- Efficacy [3]: 104%
SMILES: CCCCOc1ccc2oc(-c3ccc(CN4CC(C(=O)O)C4)cc3Cl)cc2c1

- EC50 [1]: > 25000 nM
- EC50 [2]: 424 nM
- Efficacy [3]: 115%
SMILES: O=C(O)C1CN(Cc2ccc(-c3cc4cc(C5CCCCC5)ccc4o3)nc2)C1

- IC50 [4]: > 10000 nM
SMILES: FC(F)(F)c1cccc(-c2noc(-c3cc(-c4ccccc4)c(C(F)(F)F)s3)n2)c1

- EC50 [1]: 3430 nM
- EC50 [2]: 253 nM
- Efficacy [3]: 100%
SMILES: O=C(O)C1CN(Cc2ccc(-c3cc4cc(Cc5ccccc5)ccc4o3)cc2F)C1

- EC50 [1]: 27000 nM
- EC50 [2]: 57 nM
- Selectivity ratio (Homo sapiens): > 1000
- half-life [8]: > 1.5 h
- clearance [12]: 2.3 mL/min/kg
- Vd [13]: 1.7 L/kg
- half-life [14]: 12.1 h
- MRT [15]: 12.7 h
- bioavailability [16]: 80%
- clearance [17]: 5.15 mL/min/kg
- Vd [18]: 1 L/kg
- half-life [19]: 4.7 h
- MRT [20]: 3.4 h
- bioavailability [21]: 88%
- clearance [22]: 4.43 mL/min/kg
- Vd [23]: 2.2 L/kg
- half-life [24]: 21.1 h
- MRT [25]: 9 h
- bioavailability [26]: 51%
- inhibition (INH) [27]: Not Active
- Activity [28]: Not Active
SMILES: O=C(O)C1CN(Cc2ccc(-c3cc4cc(Cc5ccccc5)ccc4o3)c(F)c2)C1
- Activity (Rattus norvegicus [6]): Non-toxic
- Activity (Rattus norvegicus [7]): Non-toxic
- inhibition in vivo at 1 mg/kg (Rattus norvegicus [9]): 75%
- inhibition in vivo at 3 mg/kg (Rattus norvegicus [10]): 75%
- inhibition (Rattus norvegicus [11]): Dose-dependent effect
- inhibition (Mus musculus): Active
- Activity [29]: Non-toxic
- IC50 [30]: 17000 nM
- NOAEL at 96 h [31]: 20 mg/kg
- Activity (Rattus norvegicus [32]): Toxic
- Activity (Rattus norvegicus [33]): Toxic

- IC50 [4]: > 10000 nM
SMILES: CC(C)(C)c1ccc(-c2noc(-c3ccc(CN4CC(C(=O)O)C4)cc3)n2)cc1

- EC50 [1]: 1440 nM
- EC50 [2]: 620 nM
- Selectivity ratio (Homo sapiens): 2
SMILES: O=C(O)C1CN(Cc2ccc(-c3cc4cc(N5CCCCC5)ccc4o3)cc2)C1

- IC50 [4]: 12000 nM
SMILES: CC(C)Cc1ccc(-c2nc(-c3ccc(CN4CC(C(=O)O)C4)cc3)no2)cc1

- EC50 [1]: 4800 nM
- EC50 [2]: 290 nM
- Efficacy [3]: 156%
SMILES: O=C(O)C1CN(Cc2ccc(-c3cc4cc(OCC5CC5)ccc4o3)c(F)c2)C1

- EC50 [1]: > 7200 nM
SMILES: CCCCOc1ccc2oc(-c3ccc(CN4CC(C(=O)O)C4)cc3)cc2c1

- EC50 [1]: > 25000 nM
- EC50 [2]: > 1000 nM
SMILES: CCCCOc1ccc2oc(-c3ncc(CN4CC(C(=O)O)C4)s3)cc2c1

- EC50 [1]: > 25000 nM
- EC50 [2]: 653 nM
- Efficacy [3]: 117%
SMILES: CCCCOc1ccc2oc(-c3ccc(CN4CC(C(=O)O)C4)cc3OC)cc2c1

- EC50 [5]: 600 nM
- EC50 [1]: > 25000 nM
- EC50 [2]: 460 nM
SMILES: O=C(O)C1CN(Cc2ccc(-c3cc4cc(C5CCCCC5)ccc4o3)cc2)C1

- IC50 [4]: > 10000 nM
SMILES: CC(C)(C)c1ccc(-c2nnc(-c3ccc(CN4CC(C(=O)O)C4)cc3)o2)cc1
